Measured values from patent US20230103644A1, “TREATMENT OF EPILEPSY” (Katholieke Universiteit Leuven, priority 2020, published 2023).
Entries after “also recorded” stand apart in the source; their conditions may differ.

Columns and labels:
[1] = cited from earlier work
[2] = system: EKP induced seizures in zebrafish larvae; assay: Zebrafish drug resistant epilepsy model: ethyl ketopentenoate (EKP), locomotor tracking; format: in vivo; conditions: for activity after EKP exposure (locomotor activity relative to EKP only): 1 μM compound, 300 μM EKP, 30 min recording; for effect on EKP induced seizures (locomotor activity, actinteg units): 7 dpf larvae, compound at MTC (CQ 3 μM, CH 3.125 μM, PBT-1033 6 μM) 2 h before 300 μM EKP
Method: Larvae (7 dpf) in 100 μl VHC were arrayed individually in a 96-well plate (tissue culture plate, at bottom, Falcon, USA) and kept in the light at 28° C. Two-hours before tracking compound (clioquinol (CQ), chloroxine (CH), PBT-1033) and/or inhibitor (disulfiram (DS), CBR) was added at their MTC to the larvae and afterwards the 96-well plates were placed in darkness at 28° C. for 2 hours. Just prior to tracking 100 µl of VHC or EKP stock solution was added to each well to obtain a EKP concentration of 300 μM. The plates were placed in an automated video tracking device (ZebraBox™ apparatus; Viewpoint, Lyon, France) and the locomotor behavior of the larvae was monitored for 40 min in the dark at 28° C. Locomotor activity was quantified using ZebraLab™ software (Viewpoint, Lyon, France) and expressed in “actinteg” units per 5-min interval. For each larvae, 30 min of tracking data after the effect of EKP was initiated was used. The actinteg value is defined as the sum of all image pixel changes detected during the time window.
Locomotor activity was quantified using ZebraLab™ software (Viewpoint, Lyon, France) and expressed in mean “actinteg” units per 5-min+/−SEM during a 30 min recording interval relative to EKP only. Statistical analysis: one-way ANOVA with Dunnett's multiple comparison test. A statistical difference is indicated by: ****p<0.0001. For each condition n=10 larvae were used and the experiment was performed two times (n total=20 per condition).

[3] = cited from earlier work; remark: listed apart in the source
human Phgdh = molecular target: T1, human Phgdh (Homo sapiens, UniProt O43175); assay: Phgdh activity assay (colorimetric kit, NADH at 450 nm); format: biochemical; conditions: for Phgdh activation (in words): 25 μM compound
T1 construct: purchased BPS bioscience 71079
T1 sequence (O43175 1-533): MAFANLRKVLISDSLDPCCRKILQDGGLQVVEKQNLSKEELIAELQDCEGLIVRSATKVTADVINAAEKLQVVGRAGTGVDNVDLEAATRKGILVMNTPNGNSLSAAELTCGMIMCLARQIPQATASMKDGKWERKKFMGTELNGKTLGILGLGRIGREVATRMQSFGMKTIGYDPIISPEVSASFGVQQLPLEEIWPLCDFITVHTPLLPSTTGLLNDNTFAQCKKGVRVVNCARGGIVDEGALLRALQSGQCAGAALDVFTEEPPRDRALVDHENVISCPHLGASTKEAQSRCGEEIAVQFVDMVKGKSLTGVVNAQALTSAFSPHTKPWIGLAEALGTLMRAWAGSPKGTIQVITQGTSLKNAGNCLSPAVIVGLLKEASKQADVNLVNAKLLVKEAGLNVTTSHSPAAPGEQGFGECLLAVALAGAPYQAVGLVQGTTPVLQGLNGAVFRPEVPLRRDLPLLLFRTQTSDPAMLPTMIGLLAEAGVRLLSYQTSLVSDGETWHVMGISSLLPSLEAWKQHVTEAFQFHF
Method: Phgdh enzyme activity upon drug treatment was tested using human Phgdh (BPS bioscience, 71079) and a specific colorimetric Phgdh activity kit (Biovision, K569). The Phgdh inhibitor Disulfiram [Spillier et al. (2019) Sci Rep. 9, 4737], served as […].
Briefly, Human Phgdh enzyme was diluted in assay buffer at a concentration of 0.38 mg/mL. Next, 5 μl of this Phgdh enzyme solution and 5 μL of the compounds in 5% DMSO and assay buffer was added (to wells of flat bottom 96-well plate). Subsequently, 40 μl Phgdh assay buffer (Biovision) and 50 μl Phgdh reaction mix (prepared as described in the protocol of the Phgdh assay kit K569, Biovision) was added. The final amount of enzyme per reaction was 0.35 μM. Afterwards, absorbance at 450 nm, indicative for the amount of NADH generated, was measured over time. NADH is one of the end products of the reaction. In between measurements, the plate was incubated at 37° C., protected from light.

[4] = cited from earlier work; remark: listed apart in the source
[5] = system: 6-Hz (44 mA) psychomotor seizures in NMRI mice; assay: Mouse 6-Hz (44 mA) psychomotor seizure model; format: in vivo; conditions: i.p. injection 60 min before corneal stimulation
Method: Male NMRI mice (weight 25-30 g) were acquired from Charles River Laboratories (France) and housed in polyacrylic cages under a 14/10-hour light/dark cycle at 21° C. The animals were fed a pellet diet and water ad libitum, and were allowed to acclimate for 1 week before experimental procedures were conducted. Prior to the experiment, mice were isolated in polyacrylic cages with a pellet diet and water ad libitum for habituation overnight in the experimental room, to minimize stress. The antiseizure activity of compounds was investigated in the mouse 6-Hz (44 mA) psychomotor seizure model as described before [Copmans et al (2018) ACS Chem Neurosci. 9, 1652-1662.]. In brief, 500 μl (injection volume was adjusted to the individual weight) of VHC (0.5% sodiumcarboxymethylcellulose (NaCMC)/Tween80 in 0.9% NaCl) or treatment (valproate or clioquinol dissolved in VHC) was i.p. injected in NMRI mice and after 60 min psychomotor seizures were induced by corneal electrical stimulation (6 Hz, 0.2 ms rectangular pulse width, 3 s duration, 44 mA) using an ECT Unit 5780 (Ugo Basile, Comerio, Italy). Seizure durations were measured during the experiment by experienced researchers, familiar with the different seizure behaviours. In addition, seizure durations were determined by blinded video analysis to confirm or correct the initial observations. Data are expressed as mean±SD.

[6] = system: cAMP-transporting ABC pumps; conditions: possible targets ABCC4 and ABCC11; cited from earlier work
Scn1Lab mutant larvae = assay: Zebrafish model of Dravet syndrome, locomotor behavioural assay; format: in vivo; conditions: 6 dpf larvae, MTC concentration in 0.1% DMSO, 2 h incubation, normalized to VHC-treated mutants
Method: 6 dpf Scn1Lab mutant larvae (selected by their darker appearance, lack of a swim bladder and slight curvature of the body on 6 dpf) and WT larvae were arrayed in a 96-well plate (one larva per well) and treated with 100 μl VHC (0.1% DMSO) or compound (MTC concentration in 0.1% DMSO). After incubation at 28° C. on a 14/10 h light/dark cycle for 2 h, the plates were immediately placed in an enclosed tracking device (ZebraBox Viewpoint, France) and chamber habituation for 30 min. The locomotor activity of the larvae were evaluated during 10 min under dark conditions and quantified by the lardist parameter (total distance in large movements) and plotted in cm (ZebraLab™ software, Viewpoint, Lyon, France). Data was collected from 3-4 larvae per treatment condition. The locomotor data were analysed by normalizing the locomotor activity of treated larvae against VHC-treated Scn1Lab mutant larvae.

## Oc1c(I)cc(Cl)c2cccnc12 [clioquinol]
[1]; animals, over 30 days, in all but one study
  dose that did not produce toxicity in animals: 100 mg/(kg day)
[1]; dogs, in a week
  dose with toxicity observed in a week: 400 mg/(kg day)
[1]; dogs, treated for over a month
  dose with neurological toxicity in dogs: exceeding 200 mg/(kg day)
[2]
  activity after EKP exposure (locomotor activity relative to EKP only): superior activity
  effect on EKP induced seizures (locomotor activity, actinteg units): significantly reduced EKP induced seizures
[3]; Alzheimer clinical trial, for weeks (10 mg/kg/day)
  dose with no apparent adverse effects: 750 mg/day
[3]; humans (42.5 mg/kg/day)
  dose with dose-limiting neurotoxicity and abdominal pain: 3200 mg/day
[3]; humans, per day (~50 mg/(kg day))
  dose received by patients without toxicity: 3.5 g
Human Phgdh; compound itself, data not shown
  effect on the oxido-reduction reaction toward NADH generation: does not affect
[4]; doses of 250 or 500 mg
  dose/concentration ratio in humans: 0.64-1.4
[4]; in vivo
  concentrations of free clioquinol in humans relative to hamsters (mean): 33 times
[5]
  seizure duration: trend towards reduced seizure duration
[6]
  effect on cAMP-transporting ABC pumps: inhibits

## O=C(Oc1cccc2cccnc12)c1ccccc1 [benzoxyquine]
Human Phgdh
  Phgdh activation (in words): could not activate Phgdh

## Oc1c(Cl)cc(Cl)c2cccnc12 [chloroxine]
[2]
  effect on EKP induced seizures (locomotor activity, actinteg units): significantly reduced EKP induced seizures
Scn1Lab mutant larvae
  reduction of epileptiform locomotor activity of Scn1Lab mutant group: > 60%

## Oc1ccc(Cl)c2cccnc12 [cloxyquin, 5-Chloro-8-quinolinol]
Human Phgdh
  Phgdh activation (in words): activity comparable to clioquinol

## O=C(O)c1cc(O)c2ccc(Cl)cc2n1 [7-chloro-kynurenic acid]
[2]
  activity after EKP exposure (locomotor activity relative to EKP only): not Active
Human Phgdh
  Phgdh activation (in words): could not activate Phgdh; also recorded: no induced activation of PHGDH
